{"source": "patent US10766869B2", "about": "“Triazoles for the treatment of demyelinating dieases” (Vertex Pharmaceuticals Incorporated, priority 2015, dated 2020)", "test_system": "primary rat mixed cortical cells", "assay": "In vitro myelination assay (MBP positive myelin strands, fold myelin pixels above background)", "format": "cell-based", "conditions": "Rattus norvegicus, relative to baseline of no added compound, read-out: Fold myelin pixels above background; for fold induction at 1 µM: 1.0 μM compound; for fold induction at 10 µM: 10.0 μM compound", "method_in_brief": "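P1 rat cortical cells (neurons, OPCs, oligodendrocytes, astrocytes, microglia) were cultured 14 days at 37 °C with compound, with half-medium changes containing 1× compound on days 6 and 10. Fixed cells were immunostained for MBP and imaged at 10×. Total MBP myelin pixels per well were expressed as fold above no-compound baseline at 1.0 μM and 10.0 μM.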", "data": [{"smiles": "Cc1cc(Nc2ncn(-c3cc(F)cc(F)c3)n2)cc(N2C[C@H]3C[C@@H]2CN3C)c1", "note": "[Compound 459, 1-(3,5-difluorophenyl)-N-[3-methyl-5-[(1R,4R)-5-methyl-2,5-diazabicyclo[2.2.1]heptan-2-yl]phenyl]-1,2,4-triazol-3-amine]", "values": [{"measurement": "fold induction at 1 µM", "value": "10 to 100"}, {"measurement": "fold induction at 10 µM", "value": "≤ 1"}]}, {"smiles": "F[C@H]1CCN(c2cc(Nc3ncn(-c4ccccc4)n3)cc(C3CC3)n2)C1", "note": "[Compound 460, 2-cyclopropyl-6-[(3S)-3-fluoropyrrolidin-1-yl]-N-(1-phenyl-1,2,4-triazol-3-yl)pyridin-4-amine]", "values": [{"measurement": "fold induction at 1 µM", "value": "100 to 1000"}, {"measurement": "fold induction at 10 µM", "value": "10 to 100"}]}, {"smiles": "Cc1cc(Nc2ncn(-c3ccccc3)n2)cc(N2CCN(CC(C)(C)O)CC2)c1", "note": "[Compound 461, 2-methyl-1-[4-[3-methyl-5-[(1-phenyl-1,2,4-triazol-3-yl)amino]phenyl]piperazin-1-yl]propan-2-ol]", "values": [{"measurement": "fold induction at 1 µM", "value": "1000 to 10000"}, {"measurement": "fold induction at 10 µM", "value": "≤ 1"}]}, {"smiles": "Fc1cccc(-n2cnc(Nc3cc(C4CC4)cc(N4CCN(C5COC5)CC4)c3)n2)c1", "note": "[Compound 462, N-[3-cyclopropyl-5-[4-(oxetan-3-yl)piperazin-1-yl]phenyl]-1-(3-fluorophenyl)-1,2,4-triazol-3-amine]", "values": [{"measurement": "fold induction at 1 µM", "value": "100 to 1000"}, {"measurement": "fold induction at 10 µM", "value": "≤ 1"}]}, {"smiles": "CCc1cc(Nc2ncn(-c3cccc(SC)c3)n2)cc(N2CCN(C3COC3)CC2)c1", "note": "[Compound 463, N-[3-ethyl-5-[4-(oxetan-3-yl)piperazin-1-yl]phenyl]-1-(3-methylsulfanylphenyl)-1,2,4-triazol-3-amine]", "values": [{"measurement": "fold induction at 1 µM", "value": "1 to 10"}, {"measurement": "fold induction at 10 µM", "value": "≤ 1"}]}, {"smiles": "COCC1CCN(c2cc(C)cc(Nc3ncn(-c4ccncn4)n3)c2)CC1", "note": "[Compound 464, N-[3-[4-(methoxymethyl)-1-piperidyl]-5-methyl-phenyl]-1-pyrimidin-4-yl-1,2,4-triazol-3-amine]", "values": [{"measurement": "fold induction at 1 µM", "value": "10 to 100"}, {"measurement": "fold induction at 10 µM", "value": "100 to 1000"}]}, {"smiles": "C1=C(c2cc(Nc3ncn(-c4ccccc4)n3)cc(N3CCOCC3)c2)COC1", "note": "[Compound 465, N-[3-(2,5-dihydrofuran-3-yl)-5-morpholino-phenyl]-1-phenyl-1,2,4-triazol-3-amine]", "values": [{"measurement": "fold induction at 1 µM", "value": "100 to 1000"}, {"measurement": "fold induction at 10 µM", "value": "≤ 1"}]}, {"smiles": "Cc1cc(Nc2ncn(-c3cc(F)cc(F)c3)n2)cc(C2CCCN(C3CC3)C2)c1", "note": "(stereo not shown) [Compound 466, N-[3-(1-cyclopropyl-3-piperidyl)-5-methyl-phenyl]-1-(3,5-difluorophenyl)-1,2,4-triazol-3-amine]", "values": [{"measurement": "fold induction at 1 µM", "value": "100 to 1000"}, {"measurement": "fold induction at 10 µM", "value": "≤ 1"}]}, {"smiles": "Cc1cc(Nc2ncn(-c3cc(F)cc(N4CC[C@@H](F)C4)c3)n2)cc(N2CCN(C3COC3)CC2)c1", "note": "[Compound 467, 1-[3-fluoro-5-[(3R)-3-fluoropyrrolidin-1-yl]phenyl]-N-[3-methyl-5-[4-(oxetan-3-yl)piperazin-1-yl]phenyl]-1,2,4-triazol-3-amine]", "values": [{"measurement": "fold induction at 1 µM", "value": "100 to 1000"}, {"measurement": "fold induction at 10 µM", "value": "10 to 100"}]}, {"smiles": "CCc1cc(Nc2ncn(-c3cccc(F)c3)n2)cc(N2CCN(C3COC3)CC2)c1", "note": "[Compound 468, N-[3-ethyl-5-[4-(oxetan-3-yl)piperazin-1-yl]phenyl]-1-(3-fluorophenyl)-1,2,4-triazol-3-amine]", "values": [{"measurement": "fold induction at 1 µM", "value": "100 to 1000"}, {"measurement": "fold induction at 10 µM", "value": "1 to 10"}]}, {"smiles": "Cc1cc(Nc2ncn(-c3cc(F)ccc3F)n2)cc(N2CCN(C3(C)COC3)CC2)c1", "note": "[Compound 469, 1-(2,5-difluorophenyl)-N-[3-methyl-5-[4-(3-methyloxetan-3-yl)piperazin-1-yl]phenyl]-1,2,4-triazol-3-amine]", "values": [{"measurement": "fold induction at 1 µM", "value": "100 to 1000"}, {"measurement": "fold induction at 10 µM", "value": "10 to 100"}]}, {"smiles": "Cc1cc(N2CCN(C3COC3)CC2)cc(Nc2ncn(-c3cnccn3)n2)c1C", "note": "[Compound 470, N-[2,3-dimethyl-5-[4-(oxetan-3-yl)piperazin-1-yl]phenyl]-1-pyrazin-2-yl-1,2,4-triazol-3-amine]", "values": [{"measurement": "fold induction at 1 µM", "value": "10 to 100"}, {"measurement": "fold induction at 10 µM", "value": "100 to 1000"}]}, {"smiles": "COc1c(C)cc(N2CCN(C3COC3)CC2)cc1Nc1ncn(-c2cnccn2)n1", "note": "[Compound 471, N-[2-methoxy-3-methyl-5-[4-(oxetan-3-yl)piperazin-1-yl]phenyl]-1-pyrazin-2-yl-1,2,4-triazol-3-amine]", "values": [{"measurement": "fold induction at 1 µM", "value": "1 to 10"}, {"measurement": "fold induction at 10 µM", "value": "≤ 1"}]}, {"smiles": "Cc1cc(Nc2ncn(-c3cc(F)cc(F)c3)n2)cc(NC2CCN(C3COC3)C2)c1", "note": "(stereo not shown) [Compound 472, N3-[1-(3,5-difluorophenyl)-1,2,4-triazol-3-yl]-5-methyl-N1-[1-(oxetan-3-yl)pyrrolidin-3-yl]benzene-1,3-diamine]", "values": [{"measurement": "fold induction at 1 µM", "value": "100 to 1000"}, {"measurement": "fold induction at 10 µM", "value": "≤ 1"}]}, {"smiles": "Fc1cc(F)cc(-n2cnc(Nc3cc(N4CCOCC4)cc(C(F)(F)F)c3)n2)c1", "note": "[Compound 475, 1-(3,5-difluorophenyl)-N-[3-morpholino-5-(trifluoromethyl)phenyl]-1,2,4-triazol-3-amine]", "values": [{"measurement": "fold induction at 1 µM", "value": "100 to 1000"}, {"measurement": "fold induction at 10 µM", "value": "1000 to 10000"}]}, {"smiles": "Cc1cc(Nc2ncn(-c3cc(C)ccc3F)n2)cc(N2CCN(C3COC3)CC2)c1", "note": "[Compound 476, 1-(2-fluoro-5-methyl-phenyl)-N-[3-methyl-5-[4-(oxetan-3-yl)piperazin-1-yl]phenyl]-1,2,4-triazol-3-amine]", "values": [{"measurement": "fold induction at 1 µM", "value": "10 to 100"}, {"measurement": "fold induction at 10 µM", "value": "10 to 100"}]}, {"smiles": "CN1CCN(c2cc(Nc3ncn(-c4ccc(F)c(F)c4)n3)cc(Cl)n2)CC1", "note": "[Compound 477, 2-chloro-N-[1-(3,4-difluorophenyl)-1,2,4-triazol-3-yl]-6-(4-methylpiperazin-1-yl)pyridin-4-amine]", "values": [{"measurement": "fold induction at 1 µM", "value": "10 to 100"}, {"measurement": "fold induction at 10 µM", "value": "≤ 1"}]}, {"smiles": "Cc1cc(Nc2ncn(-c3ccc(OC(F)(F)F)cc3)n2)cc(N2CCN(C3COC3)CC2)c1", "note": "[Compound 478, N-[3-methyl-5-[4-(oxetan-3-yl)piperazin-1-yl]phenyl]-1-[4-(trifluoromethoxy)phenyl]-1,2,4-triazol-3-amine]", "values": [{"measurement": "fold induction at 1 µM", "value": "1 to 10"}, {"measurement": "fold induction at 10 µM", "value": "1 to 10"}]}, {"smiles": "Cc1cc(Nc2ncn(-c3ccccc3)n2)cc(N2C[C@@H]3C[C@H]2CN3C)c1", "note": "[Compound 479, N-[3-methyl-5-[(1S,4S)-5-methyl-2,5-diazabicyclo[2.2.1]heptan-2-yl]phenyl]-1-phenyl-1,2,4-triazol-3-amine]", "values": [{"measurement": "fold induction at 1 µM", "value": "100 to 1000"}, {"measurement": "fold induction at 10 µM", "value": "≤ 1"}]}, {"smiles": "Cc1cc(Nc2ncn(-c3cc(F)cc(N4CCC(CO)C4)c3)n2)cc(N2CCN(C3COC3)CC2)c1", "note": "(stereo not shown) [Compound 480, [1-[3-fluoro-5-[3-[3-methyl-5-[4-(oxetan-3-yl)piperazin-1-yl]anilino]-1,2,4-triazol-1-yl]phenyl]pyrrolidin-3-yl]methanol]", "values": [{"measurement": "fold induction at 1 µM", "value": "10 to 100"}, {"measurement": "fold induction at 10 µM", "value": "≤ 1"}]}, {"smiles": "COCC1CCN(c2cc(C)cc(Nc3ncn(-c4ccccc4)n3)c2)CC1", "note": "[Compound 481, N-[3-[4-(methoxymethyl)-1-piperidyl]-5-methyl-phenyl]-1-phenyl-1,2,4-triazol-3-amine]", "values": [{"measurement": "fold induction at 1 µM", "value": "100 to 1000"}, {"measurement": "fold induction at 10 µM", "value": "100 to 1000"}]}, {"smiles": "Cc1cc(Nc2ncn(-c3cc(F)cc(F)c3)n2)cc(N2CCN(C3CC3)CC2)c1", "note": "[Compound 482, N-[3-(4-cyclopropylpiperazin-1-yl)-5-methyl-phenyl]-1-(3,5-difluorophenyl)-1,2,4-triazol-3-amine]", "values": [{"measurement": "fold induction at 1 µM", "value": "10 to 100"}, {"measurement": "fold induction at 10 µM", "value": "100 to 1000"}]}, {"smiles": "Cc1cc(Nc2ncn(-c3ccccc3)n2)cc(C2CCN(CC3(C)COC3)CC2)c1", "note": "[Compound 483, N-[3-methyl-5-[1-[(3-methyloxetan-3-yl)methyl]-4-piperidyl]phenyl]-1-phenyl-1,2,4-triazol-3-amine]", "values": [{"measurement": "fold induction at 1 µM", "value": "≤ 1"}, {"measurement": "fold induction at 10 µM", "value": "≤ 1"}]}]}
